Tests used:
Format in all cases: cell-based
B16F10 = experiment: Proliferation assay (crystal violet), B16F10; conditions: Mus musculus, B16-F10, 96 h; B16F10, 4 days; read-out: Inhibition of proliferation IC50 B16F10
Procedure: (§1) Cultivated tumor cells (cells were ordered from ATCC, except HeLa-MaTu and HeLa-MaTu-ADR, which were ordered from EPO-GmbH, Berlin) were plated at a density of 1000 to 5000 cells/well, depending on the growth rate of the respective cell line, in a 96-well multititer plate in 200 μL of their respective growth medium supplemented 10% fetal calf serum. After 24 hours, the cells of one plate (zero-point plate) were stained with crystal violet (see below), while the medium of the other plates was replaced by fresh culture medium (200 μl), to which the test substances were added in various concentrations (0 μM, as well as in the range of 0.001-10 μM; the final concentration of the solvent dimethyl sulfoxide was 0.5%). The cells were incubated for 4 days in the presence of test substances. Cell proliferation was determined by staining the cells with crystal violet: the cells were fixed by adding 20 μl/measuring point of an 11% glutaric aldehyde solution for 15 minutes at room temperature. After three washing cycles of the fixed cells with water, the plates were dried at room temperature. The cells were stained by adding 100 μl/measuring point of a 0.1% crystal violet solution (pH 3.0). After three washing cycles of the stained cells with water, the plates were dried at room temperature. The dye was dissolved by adding 100 μl/measuring point of a 10% acetic acid solution. Absorption was determined by photometry at a wavelength of 595 nm. The change of cell number, in percent, was calculated by normalization of the measured values to the absorption values of the zero-point plate (=0%) and the absorption of the untreated (0 μm) cells (=100%). The IC50 values were determined by means of a 4 parameter fit.

NCI-H460 = experiment: Proliferation assay (crystal violet), NCI-H460; conditions: Homo sapiens, 96 h; NCI-H460, 4 days; read-out: Inhibition of proliferation IC50 NCI-H460
Procedure: as §1

Caco2 = experiment: Proliferation assay (crystal violet), Caco2; conditions: Homo sapiens, Caco-2, 96 h; Caco2, 4 days; read-out: Inhibition of proliferation IC50 Caco2
Procedure: as §1

HeLa-MaTu-ADR = experiment: Proliferation assay (crystal violet), HeLa-MaTu-ADR; conditions: 96 h, 4 days, read-out: Inhibition of proliferation IC50 HeLa-MaTu-ADR
Procedure: as §1

DU145 = experiment: Proliferation assay (crystal violet), DU145; conditions: Homo sapiens, DU-145, 96 h; DU145, 4 days; read-out: Inhibition of proliferation IC50 DU145
Procedure: as §1

Row | IC50 (B16F10) [nM] | IC50 (NCI-H460) [nM] | IC50 (Caco2) [nM] | IC50 (HeLa-MaTu-ADR) [nM] | IC50 (DU145) [nM] | Compound
1 | 250 | 260 | 350 | 370 | 740 | Cc1nsc(Nc2ccc(C(F)(F)F)nn2)c1C(=O)Nc1ccc(F)c(F)c1 [Example 83, N-(3,4-Difluorophenyl)-3-methyl-5-{[6-(trifluoromethyl)pyridazin-3-yl]amino}-1,2-thiazole-4-carboxamide]
2 | 2000 | 3000 | 1500 | 1100 | 3000 | CCNc1cncc(Nc2snc(C)c2C(=O)Nc2ccc(F)c(F)c2)n1 [Example 78, N-(3,4-Difluorophenyl)-5-{[6-(ethylamino)pyrazin-2-yl]amino}-3-methyl-1,2-thiazole-4-carboxamide]
3 | 3000 | 2900 | 1300 | 530 | 2900 | CNC(=O)c1cnc(Nc2snc(C)c2C(=O)Nc2ccc(F)c(F)c2)cn1 [Example 75, 5-({4-[(3,4-Difluorophenyl)carbamoyl]-3-methyl-1,2-thiazol-5-yl}amino)-N-methylpyrazine-2-carboxamide]
4 | 320 | 170 | 310 | 260 | 510 | CCc1ccccc1NC(=O)c1c(C)nsc1Nc1cnc2cc(Cl)ccc2n1 [Example 86, 5-[(6-Chloroquinoxalin-2-yl)amino]-N-(2-ethylphenyl)-3-methyl-1,2-thiazole-4-carboxamide]
5 | 2700 | 2000 | 2400 | 1800 | 6900 | CCc1ccccc1NC(=O)c1c(C)nsc1Nc1cc(C#N)ccn1 [Example 4, 5-[(4-Cyanopyridin-2-yl)amino]-N-(2-ethylphenyl)-3-methyl-1,2-thiazole-4-carboxamide]
6 | 290 | 180 | 240 | 330 | 840 | COc1ccc(NC(=O)c2c(C)nsc2Nc2cncc(C(F)(F)F)n2)cn1 [Example 84, N-(6-methoxypyridin-3-yl)-3-methyl-5-{[6-(trifluoromethyl)pyrazin-2-yl]amino}-1,2-thiazole-4-carboxamide]
7 | 390 | 620 | 320 | 100 | 510 | CCNC(=O)c1cncc(Nc2snc(C)c2C(=O)Nc2ccc(F)c(F)c2)n1 [Example 73, 6-({4-[(3,4-Difluorophenyl)carbamoyl]-3-methyl-1,2-thiazol-5-yl}amino)-N-ethylpyrazine-2-carboxamide]
8 | 170 | 120 | 160 | 130 | 190 | Cc1nsc(Nc2cnc(Cl)cn2)c1C(=O)Nc1ccc(F)c(F)c1 [Example 74, 5-[(5-Chloropyrazin-2-yl)amino]-N-(3,4-difluorophenyl)-3-methyl-1,2-thiazole-4-carboxamide]
9 | 140 | 140 | 190 |  | 290 | Cc1nsc(Nc2ccc(C#N)cn2)c1C(=O)Nc1ccc(Cl)c(Cl)c1 [Example 62, 5-[(5-Cyanopyridin-2-yl)amino]-N-(3,4-dichlorophenyl)-3-methyl-1,2-thiazole-4-carboxamide]
10 | 200 | 240 | 210 | 230 | 680 | Cc1nsc(Nc2cnc(C(F)(F)F)cn2)c1C(=O)Nc1ccc(F)c(F)c1 [Example 81, N-(3,4-Difluorophenyl)-3-methyl-5-{[5-(trifluoromethyl)pyrazin-2-yl]amino}-1,2-thiazole-4-carboxamide]
11 | 160 | 210 | 210 | 180 | 320 | Cc1nsc(Nc2cncc(-n3cccn3)n2)c1C(=O)Nc1ccc(Cl)c(F)c1 [Example 67, N-(4-Chloro-3-fluorophenyl)-3-methyl-5-{[6-(1H-pyrazol-1-yl)pyrazin-2-yl]amino}-1,2-thiazole-4-carboxamide]
12 | 250 | 230 | 220 | 240 | 430 | Cc1nsc(Nc2cnc3cc(C(F)(F)F)ccc3n2)c1C(=O)Nc1ccc(F)c(F)c1 [Example 60, N-(3,4-Difluorophenyl)-3-methyl-5-{[6-(trifluoromethyl)quinoxalin-2-yl]amino}-1,2-thiazole-4-carboxamide]
13 | 510 | 340 | 350 | 350 | 650 | CCc1cnc(Nc2snc(C)c2C(=O)Nc2ccc(F)c(F)c2)cn1 [Example 79, N-(3,4-Difluorophenyl)-5-[(5-ethylpyrazin-2-yl)amino]-3-methyl-1,2-thiazole-4-carboxamide]
14 | 470 | 260 | 720 | 270 | 470 | Cc1nsc(Nc2cncc(-n3cccn3)n2)c1C(=O)Nc1ccc(F)c(F)c1 [Example 64, N-(3,4-Difluorophenyl)-3-methyl-5-{[6-(1H-pyrazol-1-yl)pyrazin-2-yl]amino}-1,2-thiazole-4-carboxamide]
15 | 330 | 350 | 240 | 320 | 570 | Cc1nsc(Nc2cnc3cc(C(F)(F)F)ccc3n2)c1C(=O)Nc1ccc(Cl)c(F)c1 [Example 68, N-(4-Chloro-3-fluorophenyl)-3-methyl-5-{[6-(trifluoromethyl)quinoxalin-2-yl]amino}-1,2-thiazole-4-carboxamide]
16 | 220 | 180 | 240 | 230 | 430 | Cc1nsc(Nc2cncc(Cl)n2)c1C(=O)Nc1ccc(F)c(F)c1 [Example 71, 5-[(6-Chloropyrazin-2-yl)amino]-N-(3,4-difluorophenyl)-3-methyl-1,2-thiazole-4-carboxamide]
17 | 220 | 180 | 180 | 94 | 280 | Cc1nsc(Nc2cnc(Br)cn2)c1C(=O)Nc1ccc(F)c(F)c1 [Example 77, 5-[(5-Bromopyrazin-2-yl)amino]-N-(3,4-difluorophenyl)-3-methyl-1,2-thiazole-4-carboxamide]
18 | 140 | 56 | 170 | 130 | 270 | Cc1nsc(Nc2cncc(C(F)(F)F)n2)c1C(=O)Nc1ccc(F)c(F)c1 [Example 82, N-(3,4-Difluorophenyl)-3-methyl-5-{[6-(trifluoromethyl)pyrazin-2-yl]amino}-1,2-thiazole-4-carboxamide]
19 | 500 | 420 | 370 | 360 | 700 | COc1ccc(NC(=O)c2c(C)nsc2Nc2cnc(C(F)(F)F)cn2)cn1 [Example 85, N-(6-methoxypyridin-3-yl)-3-methyl-5-{[5-(trifluoromethyl)pyrazin-2-yl]amino}-1,2-thiazole-4-carboxamide]

Source: US9682995B2, “Amino-substituted isothiazoles” (BAYER PHARMA AKTIENGESELLSCHAFT, priority 2013, dated 2017)
